Data as given in patent publication US6632826B1, “Carbocyclic HIV protease inhibitors” (priority 2001, dated 2003).
Where two headings read alike, the source gives them in different places.

Assays:
[1] = system: HIV-HXB2 in MT4 cells; test: Antiviral assay: protection of HIV-infected MT4 cells from cell death (MTT); format: cell-based; details: MT4 cells infected with HIV-HXB2, 5 days, concentration preserving cell viability by 50%
Experimental: Methods 20: 309-321]. The method is based on the ability of compounds to protect HIV-infected T lymphoblastoid cells (MT4 cells) from cell-death mediated by the infection. The endpoint of the assay was calculated as the concentration of compound at which the cell viability of the culture was preserved by 50% (‘50% inhibitory concentration’, IC50). The cell viability of a culture was determined by the uptake of soluble, yellow 3-[4,5-dimethylthiazol-2-yl]-2,5-diphenyltetrazolium bromide (MTT) and its reduction to a purple insoluble formazan salt. After solubilization, spectrophotometric methods were employed to measure the amount of formazan product. MT4 cells were prepared to be in logarithmic-phase growth and a total of 2×10^6 cells infected with either the wild type or site directed mutant clones of HIV-HXB2 at a multiplicity of approximately 0.0001 infectious units of virus per cell in a total volume of between 200-500 μl. The cells were incubated with virus for one hour at 37° C. then washed in 0.01 M phosphate buffered saline, pH 7.2, and resuspensed in culture medium for incubation in culture with serial dilutions of test compound. The culture medium used was RPMI 1640 without phenol red, supplemented with penicillin, streptomycin, L-glutamine and 10% fetal calf serum (GM 10).
Test compounds were prepared as 2 mM solutions in dimethyl sulphoxide (DMSO). Four replicate, serial 2-fold dilutions in GM10 were then prepared and 50 microlitre amounts placed in 96-well plates over a final concentration range of 625-1.22 nm. Fifty microlitres GM10 and 3.75×10^4 infected cells were then added to each well. Control cultures containing no cells (blank), uninfected cells (100% viability; 4 replicates) and infected cells without compound (total virus-mediated cell death; 4 replicates) were also prepared. The cultures were then incubated at 37° C. in a humidified atmosphere of 5% CO2 in air for 5 days.
A fresh solution of 5 mg/mL MTT was prepared in 0.01 M phosphate buffered saline, pH 7.2 and 20 μL added to each culture. The cultures were further incubated as before for 2 hours. They were then mixed by pipetting up and down, and 170 microlitres of Triton X-100 in acidified isopropanol (10% v/v Triton X-100 in 1:250 mixture of concentrated HCl in isopropanol) were added and the cultures were mixed again by pipetting up and down. When the formazan deposit was fully solubilised by further mixing, the absorbance (OD) of the cultures was measured at 540 nm and 690 nm wavelength (690 nm readings were used as blanks for artefacts between wells). The percent protection for each treated culture was then calculated from the equation: [formula]
The IC50 was then obtained from graph plots of percentage protection versus log10 drug concentration.

[2] = molecular target: HIV-1 protease (Human immunodeficiency virus type 1 group M subtype B, UniProt P04585); test: HIV protease inhibition assay (quenched fluorogenic substrate, fluorescence energy transfer); details: crude HIV-1 protease from E. coli, pH 4.7, 2 hours at 37° C.
Experimental: HIV Protease Inhibition Assay
HIV protease inhibitory activity was assessed using an adaptation of the method of Matayoshi. et al. [Matayoshi E. D. et al (1990).
Crude HIV-1 protease was prepared from E. coli pPTΔN. Cultures were grown at 30° C. in M9 medium supplemented with 0.2% casamino acids, 100 μg/ml ampicillin and 25 μg/ml thiamine until OD600=0.5-0.6, and the temperature was raised to 42° C. to induce expression of the protease. After 1.5 hours, the cells were harvested and the pellets stored at −70° C. until required.
The protease was prepared by lysis of the cells in a French pressure cell followed by precipitation of the enzyme with ammonium sulfate at 30% saturation.
The assay buffer comprised 0.1M sodium acetate pH 4.7, 8 mM EDTA, 0.2 M NaCl.
Tubes were incubated for 2 hours at 37° C. and the reaction was terminated by the addition of 500 μl of a 2:1 mixture of DMSO: 50 mM Tricine pH 8.5. Fluorescence was measured in a fluorescence spectrophotometer, excitation λ=340 nm, emission λ=492 nm.

[3] = Human immunodeficiency virus 1, HXB2, MT4, 120 h

Row | Structure (SMILES) | IC50 [1] | IC50 ([2]; Enzyme IC50 (nM)) | IC50 [1, 3] | IC50 ([2]; read-out: Enzyme IC50)
1 | COC1CCC(C[C@@H](O)[C@H](Cc2ccccc2)NC(=O)[C@@H](CSc2ccc3ccccc3c2)NS(C)(=O)=O)C(C(=O)NC(C)(C)C)C1 (stereo partly drawn) [Example 10, 2-{2-Hydroxy-3-[2-methanesulfonylamino-3-(naphthalen-2-ylsulfanyl)-propionylamino]-4-phenyl-butyl}-5-methoxy-cyclohexanecarboxylic acid tert-butylamide] | 28 nM | 0.3 nM |  | 
2 | CC(C)(C)NC(=O)[C@@H]1CCCCC1C[C@@H](O)[C@H](Cc1ccccc1)NC(=O)[C@@H](CSc1cccc2ccccc12)NS(C)(=O)=O (stereo in doubt) [Example 13, 2-{2-Hydroxy-3-[2-methanesulfonylamino-3-(naphthalen-1-ylsulfanyl)-propionylamino]-4-phenyl-butyl}-cyclohexanecarboxylic acid tert-butylamide] |  | 0.44 nM |  | 
3 | CC1CC(C[C@@H](O)[C@H](Cc2ccccc2)NC(=O)[C@@H](CSc2ccc3ccccc3c2)NS(C)(=O)=O)C(C(=O)NC(C)(C)C)C1 (stereo partly drawn) [Example 2, 2-{2-Hydroxy-3-[2-methanesulfonylamino-3-(naphthalen-2-ylsulfanyl)-propionylamino]-4-phenyl-butyl}-4-methyl-cyclopentanecarboxylic acid tert-butylamide] |  | 1.5 nM | 230 nM | 
4 | COC1CCC(C[C@@H](O)[C@H](Cc2ccccc2)NC(=O)[C@@H](CS(=O)(=O)c2cccc3ccccc23)NS(C)(=O)=O)C(C(=O)NC(C)(C)C)C1 (stereo partly drawn) [Example 29, 2-{2-Hydroxy-3-[2-methanesulfonylamino-3-(naphthalene-1-sulfonyl)-propionylamino]-4-phenyl-butyl}-5-methoxy-cyclohexanecarboxylic acid tert-butylamide] |  | 0.41 nM | 73 nM | 
5 | COC1CCC(C[C@@H](O)[C@H](Cc2ccccc2)NC(=O)[C@@H](CSc2ccc3ccccc3c2)NS(C)(=O)=O)C(C(=O)NC(C)(C)C)C1 (stereo partly drawn) [Example 1, 2-{2-hydroxy-3-[2-methanesulfonylamino-3-(naphthalen-2-ylsulfanyl)-propionylamino]-4-phenyl-butyl}-5-methoxy-cyclohexanecarboxylic acid tert-butylamide] |  | 0.31 nM | 29 nM | 
6 | COC1CCC(C[C@@H](O)[C@H](Cc2ccccc2)NC(=O)[C@@H](CS(=O)(=O)c2ccc3ccccc3c2)NS(C)(=O)=O)C(C(=O)NC(C)(C)C)C1 (stereo partly drawn) [Example 30, 2-{2-Hydroxy-3-[2-methanesulfonylamino-3-(naphthalene-2-sulfonyl)-propionylamino]-4-phenyl-butyl}-5-methoxy-cyclohexanecarboxylic acid tert-butylamide] |  | 0.6 nM | 173 nM | 
7 | CC1CC(C[C@@H](O)[C@H](Cc2ccccc2)NC(=O)[C@@H](C[S+]([O-])c2ccc3ccccc3c2)NS(C)(=O)=O)C(C(=O)NC(C)(C)C)C1 (stereo partly drawn) [Example 15, 2-{2-Hydroxy-3-[2-methanesulfonylamino-3-(naphthalene-2-sulfinyl)-propionylamino]-4-phenyl-butyl}-4-methyl-cyclopentanecarboxylic acid tert-butylamide] |  | 1.5 nM | 27 nM | 
8 | CC1CC(C[C@@H](O)[C@H](Cc2ccccc2)NC(=O)[C@@H](CS(=O)(=O)c2ccc3ccccc3c2)NS(C)(=O)=O)C(C(=O)NC(C)(C)C)C1 (stereo partly drawn) [Example 23, 2-{2-Hydroxy-3-[2-methanesulfonylamino-3-(naphthalene-2-sulfonyl)-propionylamino]-4-phenyl-butyl}-4-methyl-cyclopentanecarboxylic acid tert-butylamide] |  | 0.55 nM | 13 nM | 
9 | COC1CCC(C[C@@H](O)[C@H](Cc2ccccc2)NC(=O)[C@@H](C[S+]([O-])c2ccc3ccccc3c2)NS(C)(=O)=O)C(C(=O)NC(C)(C)C)C1 (stereo partly drawn) [Example 14, 2-{2-Hydroxy-3-[2-methanesulfonylamino-3-(naphthalene-2-sulfinyl)-propionylamino]-4-phenyl-butyl}-5-methoxy-cyclohexanecarboxylic Acid tert-Butylamide] |  | 0.2 nM | 20.9 nM | 
10 | CO[C@H]1CC[C@@H](C(=O)NC(C)(C)C)C(C[C@@H](O)[C@H](Cc2ccccc2)NC(=O)[C@@H](CS(=O)(=O)c2ccc3ccccc3c2)NS(C)(=O)=O)C1 (stereo partly drawn) [Example 27, N-tert-Butyl-2-[2-hydroxy-3-[[N2-(methanesulfonyl)-S-(2-naphthyl)-D-cysteinyl]amino]-4-phenylbutyl]-4-methoxy-1-cyclohexanecarboxamide S,S-dioxide] |  | 0.2 nM | 8.3 nM | 
11 | CC(C)(C)NC(=O)C1CCCCC1C[C@@H](O)[C@H](Cc1ccccc1)NC(=O)[C@@H](C[S+]([O-])c1cccc2ccccc12)NS(C)(=O)=O (stereo partly drawn) [Example 21, 2-{2-Hydroxy-3-[2-methanesulfonylamino-3-(naphthalene-1-sulfinyl)-propionylamino]-4-phenyl-butyl}-cyclohexanecarboxylic acid tert-butylamide] |  | 0.31 nM |  | 
12 | COC1CCC(C[C@@H](O)[C@H](Cc2ccccc2)NC(=O)[C@@H](C[S+]([O-])c2ccc3ccccc3c2)NS(C)(=O)=O)C(C(=O)NC(C)(C)C)C1 (stereo partly drawn) [Example 20, 2-{2-Hydroxy-3-[2-methanesulfonylamino-3-(naphthalene-2-sulfinyl)-propionylamino]-4-phenyl-butyl}-5-methoxy-cyclohexanecarboxylic acid tert-butylamide] | 21 nM |  |  | 0.2 nM
13 | CO[C@H]1CC[C@@H](C(=O)NC(C)(C)C)C(C[C@@H](O)[C@H](Cc2ccccc2)NC(=O)[C@@H](CSc2ccc3ccccc3c2)NS(C)(=O)=O)C1 (stereo partly drawn) [Example 7, N-tert-Butyl-[2-hydroxy-3-[[N2-(methanesulfonyl)-S-(2-naphthyl)-D-cysteinyl]amino]-4-phenylbutyl]-4-methoxy-1-cyclohexanecarboxamide] |  | 0.42 nM | 35.8 nM | 
